One experiment concerns the target α1-adrenoceptors. Description: inhibition of [7-methoxy-3H]prazosin binding to α1-adrenoceptors in rat whole cortical tissue. Particulars: rat whole cortex, 30 min; for Ki: [7-methoxy-3H]prazosin 0.1 nM, 30° C.; for % displacement of radio ligand, α1: at 10^-6 M, [7-methoxy-3H]prazosin, 1 µM. The procedure: Whole cortical tissue from the brains of male Charles River CD rats weighing between 150-250 g were homogenised in ice-cold 50 mM Tris-HCl, pH 7.6 (at 25° C.; 1:40 w/v) and centrifuged at 1000 g at 4° C. for 10 minutes. The supernatant was centrifuged at 30,000 g at 4° C. for 10 minutes. The pellet was rehomogenised in 50 mM Tris-HCl, pH 7.6 (1:40 w/v) and centrifuged at 30,000 g at 4° C. for 10 minutes. The final pellet was resuspended in 50 mM Tris-HCl, pH 7.6 (equivalent to 12.5 mg wet weight of tissue/ml) and used immediately in the binding assay. Aliquots (400 μl; equivalent to 5 mg wet weight of tissue/tube) of this suspension were added to tubes containing the ligand (50 μl; 0.1 nM) and distilled water (50 μl; total binding) or phentolamine (50 μl; 5 μM; non-specific binding) or test compound (50 μl; at a single concentration of 10^-6 M or at 10 concentrations ranging from 10^-11 -10^-3 M). The ligand was [7-methoxy-^3 H]prazosin and the mixture was incubated at 30° C. for 30 minutes before the incubation was terminated by rapid filtration.
(§1) The filters were washed with ice-cold Tris-HCl buffer and dried. The filters were punched out into vials, scintillation fluid added and radioactivity determined by liquid scintillation counting. The percentage displacement of specific binding of the tritiated ligand was calculated for the single concentration (10^-6 M) of test compound. Displacement curves were then produced for those compounds which displaced ≥50% of specific binding of the tritiated ligand at 10^-6 M using a range of concentrations of the compound. The concentration which gave 50% inhibition of specific binding (IC50) was obtained from the curve. The inhibition coefficient Ki was then calculated using the formula [formula] in which [ligand] is the concentration of the tritiated ligand used and KD is the equilibrium dissociation constant for the ligand.

The target of the next experiment is T1, D2 dopamine receptors (Rattus norvegicus, UniProt P61169).
T1 construct: Striatal tissue from the brains of male Charles River CD rats; from tissue; host or cells: rat striatum membranes
T1 sequence (P61169 whole entry): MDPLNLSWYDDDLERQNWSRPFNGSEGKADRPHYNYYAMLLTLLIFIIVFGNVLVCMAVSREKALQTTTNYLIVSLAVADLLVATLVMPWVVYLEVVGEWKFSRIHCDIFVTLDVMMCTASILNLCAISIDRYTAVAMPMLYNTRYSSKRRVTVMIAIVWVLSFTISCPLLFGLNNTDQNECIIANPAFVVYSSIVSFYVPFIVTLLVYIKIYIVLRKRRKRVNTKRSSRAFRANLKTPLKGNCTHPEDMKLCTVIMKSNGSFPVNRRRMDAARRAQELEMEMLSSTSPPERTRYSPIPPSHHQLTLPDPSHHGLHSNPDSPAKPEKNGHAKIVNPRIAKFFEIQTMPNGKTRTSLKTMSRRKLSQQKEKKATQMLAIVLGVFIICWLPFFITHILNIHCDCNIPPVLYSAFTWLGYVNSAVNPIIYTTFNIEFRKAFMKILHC
Description: inhibition of tritiated (S)-sulpiride binding to D2 dopamine receptors in rat striatal tissue. The settings on record: rat striatum; for Ki: tritiated (S)-sulpiride 1 nM, 4° C., 40 min; for inhibition at 1 µM: at 10^-6 M, tritiated (S)-sulpiride, read-out: % displacement of radio ligand, D2. The procedure:
Striatal tissue from the brains of male Charles River CD rats weighing between 140-250 g were homogenised in ice-cold 50 mM Tris-HCl buffer (pH 7.7 when measured at 25° C.) and centrifuged at 40,000 g for 10 minutes. The pellet was resuspended in Tris salts buffer (50 mM Tris-HCl buffer containing 120 mM NaCl, 5 mM KCl, 2 mM CaCl2 and 1 mM MgCl2 with the addition of 6 mM ascorbic acid; pH 7.7 when measured at 25° C.), and again centrifuged at 40,000 g for 10 minutes. The final pellet was stored at -80° C. Before each test the pellet was resuspended in Tris salts buffer (equivalent to 2 mg wet weight of tissue/ml). Aliquots (720 μl; equivalent to 1.44 mg wet weight of tissue/tube) of this suspension were then added to tubes containing the ligand (40 μl; 1 nM) and Tris salts buffer (40 μl; total binding) or spiroperidol (40 μl; 10 nM; non-specific binding) or test compound (40 μl; at a single concentration of 10^-6 M or at 6 concentrations ranging from 10^-11 -10^-4 M). The ligand was tritiated (S)-sulpiride and the mixture was incubated at 4° C. for 40 minutes before the incubation was terminated by rapid filtration.
The filters were washed with ice-cold Tris-HCl buffer and dried. The filters were punched out in to vials, scintillation fluid added and were left for about 20 hours before being counted by scintillation spectrophotometry. The percentage displacement of specific binding of the tritiated ligand was calculated for the single concentration (10^-6 M) of test compound. Displacement curves were then produced over a range of concentrations for those compounds which displaced ≥50% of specific binding of the tritiated ligand at 10^-6 M. The concentration which gave a 50% inhibition of specific binding (IC50) was obtained from the curve. The inhibition coefficient Ki was then calculated using the formula [formula] in [ligand] is the concentration of the tritiated ligand used and KD is the 2 equilibrium dissociation constant for the ligand.

A further experiment deals with T2, 5-HT1A receptors (Rattus norvegicus, UniProt P19327).
T2 construct: Hippocampal tissue from the brains of male Sprague-Dawley rats; from tissue; host or cells: rat hippocampus membranes
T2 sequence (P19327 1-422): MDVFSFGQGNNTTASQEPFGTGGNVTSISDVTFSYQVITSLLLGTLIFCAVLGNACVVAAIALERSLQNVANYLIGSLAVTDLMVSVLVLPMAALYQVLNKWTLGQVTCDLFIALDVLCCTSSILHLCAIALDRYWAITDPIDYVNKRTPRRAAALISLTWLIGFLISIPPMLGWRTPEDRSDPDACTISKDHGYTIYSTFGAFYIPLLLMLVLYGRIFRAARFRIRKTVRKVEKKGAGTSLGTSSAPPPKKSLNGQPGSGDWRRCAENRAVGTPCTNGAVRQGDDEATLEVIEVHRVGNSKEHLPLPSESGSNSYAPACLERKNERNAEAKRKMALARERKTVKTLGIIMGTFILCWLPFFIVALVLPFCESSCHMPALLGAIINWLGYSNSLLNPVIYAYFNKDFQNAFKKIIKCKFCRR
Description: inhibition of [3H]8-OH-DPAT binding to 5-HT1A receptors in rat hippocampal tissue. Particulars: rat hippocampus; for Ki: [3H]8-OH-DPAT 2 nM, 25° C., 30 min; for inhibition at 1 µM: at 10^-6 M, [3H]8-OH-DPAT, read-out: % displacement of radio ligand, 5-HT1A. The procedure: Hippocampal tissue from the brains of male Sprague-Dawley rats (Charles River; weight range 150-250 g) was homogenised in ice-cold 50 mM Tris-HCl buffer (pH 7.7 when measured at 25° C., 1:40 w/v) and centrifuged at 30,000 g at 4° C. for 10 minutes. The pellet was rehomogenised in the same buffer, incubated at 37° C. for 10 minutes and centrifuged at 30,000 g at 4° C. for 10 minutes. The final pellet was resuspended in 50 mM Tris-HCl buffer (pH 7.7) containing 4 mM CaCl2, 0.1% L-ascorbic acid and 10 μM pargyline hydrochloride (equivalent to 6.25 mg wet weight of tissue/ml) and used immediately in the binding assay. Aliquots (400 μl; equivalent to 2.5 mg wet weight of tissue/tube) of this suspension were added to tubes containing the ligand (50 μl; 2 nM) and distilled water (50 μl total binding) or 5-HT (50 μl; 10 μM; non-specific binding) or test compound (50 μl; at a single concentration of 10^-6 M or at 10 concentrations ranging from 10^-11 -10^-3 M). The ligand was [^3 H]8-hydroxy-2-(dipropylamino)tetralin ([^3 H]8-OH-DPAT) and the mixture was incubated at 25° C. for 30 minutes before the incubation was terminated by rapid filtration.
as §1

As a reminder, the Ki is the equilibrium dissociation constant of an inhibitor or competing ligand from its target. Regarding `O=C(NCC1CCN(C[C@H]2COc3cccc(Cl)c3O2)CC1)c1cccnc1` [Example 24, (S)-N-{[1-(8-chloro-1,4-benzodioxan-2-ylmethyl)-4-piperidyl]methyl}pyridine-3-carboxamide], the Ki on α1-adrenoceptors worked out at 0.009 µM; at D2 dopamine receptors it was 0.016 µM; on 5-HT1A receptors it was 0.034 µM.

For the compound `CSc1ncccc1C(=O)NCC1CCN(C[C@H]2COc3ccc(F)cc3O2)CC1` [Example 44, (S)-N-{[1-(7-fluoro-1,4-benzodioxan-2-ylmethyl)-4-piperidyl]methyl}-2-(methylthio)pyridine-3-carboxamide], in the experiment with α1-adrenoceptors, the “% displacement of radio ligand, α1” value is reported as 38%. Moreover, the inhibition at 1 µM turned out to be 57% at D2 dopamine receptors and 64% at 5-HT1A receptors.

Consider `Cc1ncccc1C(=O)NCC1CCN(C[C@H]2COc3cccc(C(F)(F)F)c3O2)CC1` [Example 46, (S)-2-methyl-N-{[1-(8-trifluoromethyl-1,4-benzodioxan-2-ylmethyl)-4-piperidyl]methyl}pyridine-3-carboxamide], for which, in the experiment on α1-adrenoceptors, the “% displacement of radio ligand, α1” value is recorded as 98%. The results for the inhibition at 1 µM at D2 dopamine receptors and at 5-HT1A receptors were 104% and 86%, respectively.

Regarding `O=C(NCC1CCN(C[C@H]2COc3ccc(Br)cc3O2)CC1)c1cncc(Br)c1` [Example 39, (S)-5-bromo-N-{[1-(7-bromo-1,4-benzodioxan-2-ylmethyl)-4-piperidyl]methyl}pyridine-3-carboxamide], the “% displacement of radio ligand, α1” value in the experiment on α1-adrenoceptors stood at 43%. In addition, the inhibition at 1 µM on D2 dopamine receptors came to 87%; on 5-HT1A receptors, 85%.

As for `O=C(NCC1CCN(C[C@H]2COc3cccc(C(F)(F)F)c3O2)CC1)c1cccnc1` [Example 45, (S)-N-{[1-(8-trifluoromethyl-1,4-benzodioxan-2-ylmethyl)-4-piperidyl]methyl}pyridine-3-carboxamide], in the experiment on α1-adrenoceptors, the “% displacement of radio ligand, α1” value is 94%. Besides, the inhibition at 1 µM at D2 dopamine receptors was found to be 97%; on 5-HT1A receptors, 80%.

For the compound `Nc1ncccc1C(=O)N1CCC(CNCC2COc3ccc(Cl)cc3O2)CC1` (racemic) [Example 19, 1-(2-aminonicotinoyl)-4-[N-(7-chloro-1,4-benzodioxan-2-ylmethyl)aminomethyl]piperidine], the values for the inhibition constant Ki at α1-adrenoceptors, on D2 dopamine receptors and at 5-HT1A receptors were 0.049 µM, 0.0114 µM and 0.03 µM, respectively.

As for `CSc1ncccc1C(=O)NCC1CCN(C[C@H]2COc3cccc(C(F)(F)F)c3O2)CC1` [Example 48, (S)-2-(methylthio)-N-{[1-(8-trifluoromethyl-1,4-benzodioxan-2-ylmethyl)-4-piperidyl]methyl}pyridine-3-carboxamide], the “% displacement of radio ligand, α1” value in the experiment with α1-adrenoceptors was found to be 93%. The inhibition at 1 µM amounted to 101% at D2 dopamine receptors and 80% at 5-HT1A receptors.

Consider `O=C(NCC1CCN(C[C@H]2COc3cccc(Cl)c3O2)CC1)c1cncc(Br)c1` [Example 52, (S)-5-bromo-N-{[1-(8-chloro-1,4-benzodioxan-2-ylmethyl)-4-piperidyl]methyl}pyridine-3-carboxamide], for which the “% displacement of radio ligand, α1” value in the experiment with α1-adrenoceptors is reported as 97%. Moreover, the values for the inhibition at 1 µM on D2 dopamine receptors and on 5-HT1A receptors were 101% and 95%, respectively.

Turning to `Nc1ncccc1C(=O)NCC1CCN(C[C@H]2COc3cccc(OS(=O)(=O)C(F)(F)F)c3O2)CC1` [Example 28, (S)-2-amino-N-{[1-(8-trifluoromethanesulphonyloxy-1,4-benzodioxan-2-ylmethyl)-4-piperidyl]methyl}pyridine-3-carboxamide], the “% displacement of radio ligand, α1” value in the experiment with α1-adrenoceptors was 98%. Also, the inhibition at 1 µM was 101% at D2 dopamine receptors and 96% at 5-HT1A receptors.

As to `Cc1ccc2c(c1)O[C@@H](CN1CCC(CNC(=O)c3cccnc3)CC1)CO2` [Example 30, (S)-N-{[1-(7-methyl-1,4-benzodioxan-2-ylmethyl)-4-piperidyl]methyl}pyridine-3-carboxamide], the “% displacement of radio ligand, α1” value in the experiment with α1-adrenoceptors stood at 61%. For the same compound, the inhibition at 1 µM at D2 dopamine receptors came out at 85%; on 5-HT1A receptors, 78%.

`O=C(NCC1CCN(C[C@H]2COc3ccc(F)cc3O2)CC1)c1cccnc1` [Example 43, (S)-N-{[1-(7-fluoro-1,4-benzodioxan-2-ylmethyl)-4-piperidyl]methyl}pyridine-3-carboxamide]: the “% displacement of radio ligand, α1” value in the experiment on α1-adrenoceptors is reported as 59%. Moreover, the results for the inhibition at 1 µM on D2 dopamine receptors and on 5-HT1A receptors were 68% and 76%, respectively.

In the case of `Cc1cccc(C(=O)NCC2CCN(C[C@H]3COc4ccc(Cl)cc4O3)CC2)n1` [Example 25, (S)-N-{[1-(7-chloro-1,4-benzodioxan-2-ylmethyl)-4-piperidyl]methyl}-6-methylpyridine-2-carboxamide], the Ki on α1-adrenoceptors came to 0.233 µM; on D2 dopamine receptors it was 0.033 µM; on 5-HT1A receptors, 0.047 µM.

With `Nc1ncccc1C(=O)NCC1CCN(C[C@H]2COc3ccc(F)c(F)c3O2)CC1` [Example 27, (S)-2-amino-N-{[1-(7,8-difluoro-1,4-benzodioxan-2-ylmethyl)4-piperidyl]methyl}pyridine-3-carboxamide], the “% displacement of radio ligand, α1” value in the experiment with α1-adrenoceptors turned out to be 68%. For the same compound, the inhibition at 1 µM at D2 dopamine receptors was determined as 99.9%; at 5-HT1A receptors it was 90%.

As for `O=C(NCC1CCN(C[C@H]2COc3cccc(Cl)c3O2)CC1)c1ccc(-n2cccc2)nc1` [Example 50, (S)-N-{[1-(8-chloro-1,4-benzodioxan-2-ylmethyl)-4-piperidyl)methyl}-6-(1-pyrrolyl)pyridine-3-carboxamide], in the experiment with α1-adrenoceptors, the “% displacement of radio ligand, α1” value is listed as 98%. Further, the results for the inhibition at 1 µM on D2 dopamine receptors and on 5-HT1A receptors were 101% and 97%, respectively.

The record behind these values is US5935973A, “Heterocyclcarboxamide derivatives and their use as therapeutic agents” (Knoll Aktiengesellschaft, priority 1995, dated 1999).
